Assay results as given in patent US20260125375A1 (Pfizer Inc., priority 2022, published 2026).

Experiments:
CBL-B (residues 36-427) = molecular target: T1, CBL-B (residues 36-427) (Homo sapiens, UniProt Q13191); assay: Ligand Displacement Assay (LDA), HTRF competitive binding against BODIPY-labeled fluorescent tracer, CBL-B; settings: geometric mean of the number of tests, read-out: CBL-B Ki (nM) GMean
T1 construct: Purified CBL-B (residues 36-427) and C-CBL (residues 46-435) proteins from baculovirus-infected insect cells; made in house; host or cells: baculovirus-infected insect cells
How it was run: (§1)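 Competition with a BODIPY fluorescent tracer was read by HTRF, each protein carrying an N-terminal biotinylated AviTag bound to Tb-streptavidin. Tracer KD values were set beforehand per protein; Ki derives from duplicate three-fold compound series ([…], 2% DMSO), averaged geometrically across tests.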

C-CBL (residues 46-435) = molecular target: T2, C-CBL (residues 46-435) (Homo sapiens, UniProt P22681); assay: Ligand Displacement Assay (LDA), HTRF competitive binding against BODIPY-labeled fluorescent tracer, C-CBL; settings: geometric mean of the number of tests, read-out: C-CBL Ki (nM) GMean
T2 construct: Purified CBL-B (residues 36-427) and C-CBL (residues 46-435) proteins from baculovirus-infected insect cells; made in house; host or cells: baculovirus-infected insect cells
T2 sequence (P22681 46-435): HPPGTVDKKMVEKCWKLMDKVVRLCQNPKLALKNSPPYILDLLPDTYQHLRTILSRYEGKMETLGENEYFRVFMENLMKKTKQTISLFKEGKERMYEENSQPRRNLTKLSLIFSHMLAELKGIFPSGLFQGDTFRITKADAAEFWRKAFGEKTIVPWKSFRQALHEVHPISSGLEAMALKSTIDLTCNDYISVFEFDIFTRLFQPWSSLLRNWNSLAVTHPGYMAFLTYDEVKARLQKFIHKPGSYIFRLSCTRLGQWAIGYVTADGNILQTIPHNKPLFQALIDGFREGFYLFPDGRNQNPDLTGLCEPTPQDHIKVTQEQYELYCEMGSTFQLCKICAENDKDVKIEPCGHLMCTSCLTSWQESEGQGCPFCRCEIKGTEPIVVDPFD
How it was run: as §1

WT CBL-B (36-427) = molecular target: T3, WT CBL-B (36-427) (Homo sapiens, UniProt Q13191); assay: Surface Plasmon Resonance (SPR) assay, binding affinity and kinetics, CBL-B; settings: SPR at 10° C., biotinylated WT CBL-B (36-427) on streptavidin chip; geometric mean; read-out: CBL-B SPR Kd (nM) GMean
T3 construct: N-terminal biotinylated WT CBL-B (36-427) and C-CBL (46-435) were captured on a streptavidin (SA) coated sensor chip
How it was run: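 Biotinylated WT CBL-B (36-427) or C-CBL (46-435) captured on streptavidin chip (~5000–6000 RU); binding at 10° C in HEPES buffer pH 7.2 with 2% DMSO. Multi-cycle: 2-fold, 10-point series from 10 or 100 μM, 90 s association. Single-cycle: 3-fold, 6-point, 0.001–1 μM, 120 s association, >5400 s dissociation.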

Compound	Ki (CBL-B (residues 36-427)) [nM]	Ki (C-CBL (residues 46-435)) [nM]	Kd (WT CBL-B (36-427)) [nM]
C[C@H](N[C@H]1C[C@@H](O)C1)c1nc(C(F)(F)F)cc2c(-c3cccc([C@H](c4nncn4C)C4CCC4)c3)n[nH]c12 (single isomer, unassigned) [Example C36]	1.8	16.8	2
C[C@@H](N[C@H]1C[C@@H](O)C1)c1nc(C(F)(F)F)cc2c(-c3cccc([C@H](c4nncn4C)C4CCC4)c3)n[nH]c12 (single isomer, unassigned) [Example C37]	5.3	50.6	3.3
C[C@H](N[C@H]1CCC[C@@H]1O)c1nc(C(F)(F)F)cc2c(-c3cccc([C@H](c4nncn4C)C4CCC4)c3)n[nH]c12 (single isomer, unassigned) [Example C47]	0.7	5	1.6
CCNC(C)c1nc(C(F)(F)F)cc2c(-c3cccc([C@H](c4nncn4C)C4CCC4)c3)n[nH]c12 (single isomer, unassigned) [Example C89]	8	105	4.1
C[C@@H](N[C@H]1C[C@H](O)C1)c1nc(C(F)(F)F)cc2c(-c3cccc([C@H](c4nncn4C)C4CCC4)c3)n[nH]c12 (single isomer, unassigned) [Example C92]	4.4	50	2.7
C[C@H](N[C@H]1C[C@@H](F)C1)c1nc(C(F)(F)F)cc2c(-c3cccc([C@H](c4nncn4C)C4CCC4)c3)n[nH]c12 (single isomer, unassigned) [Example C95]	4.7	28	2.3
C[C@@H](N[C@H]1C[C@@H](F)C1)c1nc(C(F)(F)F)cc2c(-c3cccc([C@H](c4nncn4C)C4CCC4)c3)n[nH]c12 (single isomer, unassigned) [Example C96]	9.2	53.5	3.3
C[C@H](N[C@@H]1CCOC1)c1nc(C(F)(F)F)cc2c(-c3cccc([C@H](c4nncn4C)C4CCC4)c3)n[nH]c12 (single isomer, unassigned) [Example D2]	5.8	77.1	3.8
C[C@@H](N[C@@H]1CCOC1)c1nc(C(F)(F)F)cc2c(-c3cccc([C@H](c4nncn4C)C4CCC4)c3)n[nH]c12 (single isomer, unassigned) [Example D3]	6	69.7	4
C[C@@H](c1nc(C(F)(F)F)cc2c(-c3cccc(C4(Cc5nncn5C)COC4)c3)n[nH]c12)N1CCC(F)(F)C1 (single isomer, unassigned) [Example D5]	32.7	148	21.9
C[C@H](c1nc(C(F)(F)F)cc2c(-c3cccc(C4(Cc5nncn5C)COC4)c3)n[nH]c12)N1CCC(F)(F)C1 (single isomer, unassigned) [Example D6]	4.6	21	1.8
C[C@@H](c1nc(C(F)(F)F)cc2c(-c3cccc(C4(Cc5nncn5C)COC4)c3)n[nH]c12)N1C[C@H](F)[C@@H](F)C1 (single isomer, unassigned) [Example D7]	7.4	28.1	2.3
C[C@H](c1nc(C(F)(F)F)cc2c(-c3cccc(C4(Cc5nncn5C)COC4)c3)n[nH]c12)N1C[C@H](F)[C@@H](F)C1 (single isomer, unassigned) [Example D8]	25.4	113	15.8
C[C@@H](c1nc(C(F)(F)F)cc2c(-c3cccc(C4(Cc5nncn5C)COC4)c3)n[nH]c12)N1CC[C@@H](F)C1 (single isomer, unassigned) [Example D9]	17.4	71.8	8.3
C[C@H](c1nc(C(F)(F)F)cc2c(-c3cccc(C4(Cc5nncn5C)COC4)c3)n[nH]c12)N1CC[C@@H](F)C1 (single isomer, unassigned) [Example D10]	6.6	25	2.8
C[C@H]1CN([C@@H](C)c2nc(C(F)(F)F)cc3c(-c4cccc(C5(Cc6nncn6C)COC5)c4)n[nH]c23)CCO1 (single isomer, unassigned) [Example D11]	7.4	27.2	4.2
C[C@H](c1nc(C(F)(F)F)cc2c(-c3cccc(C4(Cc5nncn5C)COC4)c3)n[nH]c12)N1CCO[C@@H](C)C1 (single isomer, unassigned) [Example D12]	15.3	52.9	6.6
C[C@@H]1CCCN([C@@H](C)c2nc(C(F)(F)F)cc3c(-c4cccc(C5(Cc6nncn6C)COC5)c4)n[nH]c23)C1 (single isomer, unassigned) [Example D13]	15	53.6	3.5
C[C@@H]1CCCN([C@H](C)c2nc(C(F)(F)F)cc3c(-c4cccc(C5(Cc6nncn6C)COC5)c4)n[nH]c23)C1 (single isomer, unassigned) [Example D14]	42.9	183	11.1
C[C@H](N[C@@H]1CCC[C@@H]1O)c1nc(C(F)(F)F)cc2c(-c3cccc([C@H](c4nncn4C)C4CCC4)c3)n[nH]c12 (single isomer, unassigned) [Example D15]	0.9	1	2.5
C[C@@H](N[C@@H]1CCC[C@@H]1O)c1nc(C(F)(F)F)cc2c(-c3cccc([C@H](c4nncn4C)C4CCC4)c3)n[nH]c12 (single isomer, unassigned) [Example D16]	2.5	24.5	3.6
C[C@H](O)CN[C@@H](C)c1nc(C(F)(F)F)cc2c(-c3cccc([C@H](c4nncn4C)C4CCC4)c3)n[nH]c12 (single isomer, unassigned) [Example D19]	1	12.4	1.6
C[C@@H](N[C@H]1CC[C@@H]1O)c1nc(C(F)(F)F)cc2c(-c3cccc([C@H](c4nncn4C)C4CCC4)c3)n[nH]c12 (single isomer, unassigned) [Example D22]	0.8	5.8	1.5
C[C@H](N[C@@H]1CC[C@@H]1O)c1nc(C(F)(F)F)cc2c(-c3cccc([C@H](c4nncn4C)C4CCC4)c3)n[nH]c12 (single isomer, unassigned) [Example D28]	0.7	0.6	0.4
C[C@H](NC1CC[C@H]1O)c1nc(C(F)(F)F)cc2c(-c3cccc([C@H](c4nncn4C)C4CCC4)c3)n[nH]c12 (single isomer, unassigned) [Example D30]	0.6	5.1	1.1
C[C@H](NC1CC(F)(F)C1)c1nc(C(F)(F)F)cc2c(-c3cccc([C@H](c4nncn4C)C4CCC4)c3)n[nH]c12 (single isomer, unassigned) [Example D90]	8.9	147	6.5
C[C@@H](NC1CC(F)(F)C1)c1nc(C(F)(F)F)cc2c(-c3cccc([C@H](c4nncn4C)C4CCC4)c3)n[nH]c12 (single isomer, unassigned) [Example D91]	6.2	66.8	6.3
Cn1cnnc1[C@@H](c1cccc(-c2n[nH]c3c(CN[C@H]4CCC(F)(F)C4)nc(C(F)(F)F)cc23)c1)C1CCC1 (single isomer, unassigned) [Example G1]	11	118	8
